Columns and labels:
Assay type in all cases: cell-based
hAT1R [1] = target: T1, hAT1R (Homo sapiens, UniProt P30556); assay: BRET β-arrestin2 biosensor assay, higher receptor expression (hAT1R 5 ng/well), HEK293 cells; details: for EC50: High AT1R Expression
T1 sequence (P30556 1-359): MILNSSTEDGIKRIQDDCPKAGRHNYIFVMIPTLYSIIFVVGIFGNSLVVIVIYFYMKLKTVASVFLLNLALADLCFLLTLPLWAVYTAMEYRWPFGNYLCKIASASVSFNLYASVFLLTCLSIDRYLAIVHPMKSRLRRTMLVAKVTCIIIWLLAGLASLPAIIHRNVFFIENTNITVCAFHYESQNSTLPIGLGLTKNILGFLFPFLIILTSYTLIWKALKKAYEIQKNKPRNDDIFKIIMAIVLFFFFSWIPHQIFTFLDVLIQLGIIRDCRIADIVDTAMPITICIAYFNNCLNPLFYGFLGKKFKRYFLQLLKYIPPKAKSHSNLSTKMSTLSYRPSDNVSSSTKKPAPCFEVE

hAT1R [2] = target: T1, hAT1R; assay: BRET Gq biosensor assay, agonist response, HEK293 cells; details: section of the 42nd table directly before the BRET P63 section
Outline: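 Agonist EC50 derived from a 4-parameter fit of BRET2 ratio (GFP 515 nm/Rluc 410 nm), scaled between unstimulated control and maximal AngII response. Readings taken 5 min after compound addition at room temperature, with 2 μM coelenterazine, in HEK293 cells expressing hAT1R, Gαq-Rluc, Gβ1 and GFP-Gγ1 (transfected two days earlier).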

AGTR1 = target: T2, AGTR1 (Homo sapiens, UniProt P30556); assay: DiscoveRx β-arrestin2 recruitment assay (enzyme complementation, Pathunter CHO-K1 AGTR1 β-arrestin cell line); details: DiscoveRx β-arrestin2 recruitment; for DiscoveRx β-arrestin2 Ymax (%): maximal response
T2 construct: host or cells: Pathunter CHO-K1 AGTR1 β-arrestin cell line (CHO-K1)
T2 sequence (P30556 1-359): T1 sequence (P30556 1-359)
Outline: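 Chemiluminescent enzyme-complementation read-out of β-arrestin2 recruitment to AGTR1 in engineered CHO-K1 cells after 90 min compound exposure at 37° C. Values are 4-parameter logistic EC50s in agonist mode, IC50s in antagonist mode, with efficacy relative to the maximal All response.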

CCCCc1nc(Cl)c(C(N)=O)n1Cc1ccc(-c2cc(-c3ccccc3)ccc2-c2nn[nH]n2)cc1 [Example 393, 1-((6′-(2H-tetrazol-5-yl)-[1,1′:3′,1″-terphenyl]-4-yl)methyl)-2-butyl-4-chloro-1H-imidazole-5-carboxamide]
BRET β-Arrestin2 High AT1R Expression Ymax (%) (hAT1R [1]): 86.1% | EC50 (hAT1R [1]): 12 nM | EC50 (hAT1R [2]): 48.8 nM | EC50 (AGTR1): 9.1 nM | DiscoveRx β-arrestin2 Ymax (%) (AGTR1): 41.2%

CCCCc1nc(Cl)c(C(N)=O)n1Cc1ccc(-c2cc(-c3ccccc3)ccc2-c2noc(=O)[nH]2)cc1 [Example 394]
BRET β-Arrestin2 High AT1R Expression Ymax (%) (hAT1R [1]): 94.9% | EC50 (hAT1R [1]): 37.3 nM | EC50 (hAT1R [2]): 76.4 nM | EC50 (AGTR1): 365 nM | DiscoveRx β-arrestin2 Ymax (%) (AGTR1): 59.1%

CCCc1nc(CC)c(C(=O)OCC)n1Cc1ccc(-c2cc(-c3ccccc3)ccc2-c2nn[nH]n2)cc1 [Example 395, ethyl 1-((6′-(2H-tetrazol-5-yl)-[1,1′:3′,1″-terphenyl]-4-yl)methyl)-4-ethyl-2-propyl-1H-imidazole-5-carboxylate]
BRET β-Arrestin2 High AT1R Expression Ymax (%) (hAT1R [1]): 92.4% | EC50 (hAT1R [1]): 20.4 nM | EC50 (hAT1R [2]): 12.7 nM | EC50 (AGTR1): 16.1 nM | DiscoveRx β-arrestin2 Ymax (%) (AGTR1): 54.1%

CCCc1nc(CC)c(C(=O)NCC(F)(F)F)n1Cc1ccc(-c2cc(-c3ccccc3)ccc2-c2nn[nH]n2)cc1 [Example 397, 1-((6′-(2H-tetrazol-5-yl)-[1,1′:3′,1″-terphenyl]-4-yl)methyl)-4-ethyl-2-propyl-N-(2,2,2-trifluoroethyl)-1H-imidazole-5-carboxamide]
BRET β-Arrestin2 High AT1R Expression Ymax (%) (hAT1R [1]): 87.9% | EC50 (hAT1R [1]): 80.9 nM | EC50 (hAT1R [2]): 124 nM | EC50 (AGTR1): 78.2 nM | DiscoveRx β-arrestin2 Ymax (%) (AGTR1): 46.5%

CCCc1nc(CC)c(C(N)=O)n1Cc1ccc(-c2cc(-c3ccccc3)ccc2-c2nn[nH]n2)cc1 [Example 398, 1-((6′-(2H-tetrazol-5-yl)-[1,1′:3′,1″-terphenyl]-4-yl)methyl)-4-ethyl-2-propyl-1H-imidazole-5-carboxamide]
BRET β-Arrestin2 High AT1R Expression Ymax (%) (hAT1R [1]): 91.0% | EC50 (hAT1R [1]): 13.4 nM | EC50 (hAT1R [2]): 35.1 nM | EC50 (AGTR1): 12.7 nM | DiscoveRx β-arrestin2 Ymax (%) (AGTR1): 53.6%

CCCc1nc(CC)c(C(=O)O)n1Cc1ccc(-c2cc(-c3ccccc3)ccc2-c2noc(=O)[nH]2)cc1 [Example 399]
BRET β-Arrestin2 High AT1R Expression Ymax (%) (hAT1R [1]): 92.1% | EC50 (hAT1R [1]): 7.2 nM | EC50 (hAT1R [2]): 1170 nM | EC50 (AGTR1): 13.4 nM | DiscoveRx β-arrestin2 Ymax (%) (AGTR1): 45.8%

CCCc1nc(CC)c(C(=O)O)n1Cc1ccc(-c2cc(-c3ccccc3)ccc2C(=O)O)cc1 [Example 400, 1-((6′-carboxy-[1,1′:3′,1″-terphenyl]-4-yl)methyl)-4-ethyl-2-propyl-1H-imidazole-5-carboxylic acid]
BRET β-Arrestin2 High AT1R Expression Ymax (%) (hAT1R [1]): 88.3% | EC50 (hAT1R [1]): 172 nM | EC50 (hAT1R [2]): 892 nM | EC50 (AGTR1): 150 nM | DiscoveRx β-arrestin2 Ymax (%) (AGTR1): 40.4%

CCCc1nc(C(C)(C)O)c(C(=O)OCC)n1Cc1ccc(-c2cc(-c3ccccc3)ccc2-c2nn[nH]n2)cc1 [Example 401, ethyl 1-((6′-(2H-tetrazol-5-yl)-[1,1′:3′,1″-terphenyl]-4-yl)methyl)-4-(2-hydroxypropan-2-yl)-2-propyl-1H-imidazole-5-carboxylate]
BRET β-Arrestin2 High AT1R Expression Ymax (%) (hAT1R [1]): 74.5% | EC50 (hAT1R [1]): 256 nM | EC50 (hAT1R [2]): 2240 nM | EC50 (AGTR1): 544 nM | DiscoveRx β-arrestin2 Ymax (%) (AGTR1): 43.7%

CCCc1nc(C(C)(C)O)c(C(=O)O)n1Cc1ccc(-c2cc(-c3ccccc3)ccc2-c2nn[nH]n2)cc1 [Example 402, sodium 1-((6′-(2H-tetrazol-5-yl)-[1,1′:3′,1″-terphenyl]-4-yl)methyl)-4-(2-hydroxypropan-2-yl)-2-propyl-1H-imidazole-5-carboxylate]
BRET β-Arrestin2 High AT1R Expression Ymax (%) (hAT1R [1]): 77.8% | EC50 (hAT1R [1]): 17.9 nM | EC50 (hAT1R [2]): 64.9 nM | EC50 (AGTR1): 9.9 nM | DiscoveRx β-arrestin2 Ymax (%) (AGTR1): 57.0%

CCCc1nc(C(C)(C)O)c(C(=O)[O-])n1Cc1ccc(-c2cc(-c3ccccc3)ccc2-c2noc(=O)[nH]2)cc1.[Na+] [Example 403, 4-(2-hydroxypropan-2-yl)-1-((6′-(5-oxo-4,5-dihydro-1,2,4-oxadiazol-3-yl)-[1,1′:3′,1″-terphenyl]-4-yl)methyl)-2-propyl-1H-imidazole-5-carboxylic acid, Na+]
BRET β-Arrestin2 High AT1R Expression Ymax (%) (hAT1R [1]): 88.6% | EC50 (hAT1R [1]): 9.2 nM | EC50 (hAT1R [2]): 70.9 nM | EC50 (AGTR1): 14.2 nM | DiscoveRx β-arrestin2 Ymax (%) (AGTR1): 61.4%

CCCCc1nc(Cl)c(C(=O)O)n1Cc1ccc(-c2cc(N3CC(C)(C)c4ccccc43)ccc2-c2noc(=O)[nH]2)cc1 [Example 405, 2-butyl-4-chloro-1-((5′-(3,3-dimethylindolin-1-yl)-2′-(5-oxo-4,5-dihydro-1,2,4-oxadiazol-3-yl)-[1,1′-biphenyl]-4-yl)methyl)-1H-imidazole-5-carboxylic acid]
BRET β-Arrestin2 High AT1R Expression Ymax (%) (hAT1R [1]): 95.8% | EC50 (hAT1R [1]): 42 nM | EC50 (hAT1R [2]): 492 nM | EC50 (AGTR1): 57.5 nM | DiscoveRx β-arrestin2 Ymax (%) (AGTR1): 32.8%

Source: US12037324B2, “Biarylmethyl heterocycles” (Université de Montréal, priority 2016, dated 2024)
